Legend:
HEK293T cells [1] = assay: cAMP inhibition assay (forskolin-stimulated, pGloSensor-22F); assay type: cell-based, human; conditions: 5 µM forskolin, 2.5 and 25 µg/mL, pGloSensor luminescence, n = 4
Procedure: (§1) Figure 3 Melittin derivates alter the cellular concentration of cyclic adenosine monophosphate (cAMP). (A) For the cAMP induction assay, HEK293T cells transfected with pGloSensor-22F cAMP plasmid were treated with melittin derivates (0.25, 2.5, 25 µg/mL) in presence of the pGloSensor cAMP reagent, and luminescence was detected. (B) For the cAMP inhibition assay, HEK293T cells transfected with pGloSensor-22F cAMP plasmid were treated with melittin derivates (0.25, 2.5, 25 µg/mL) in presence of the pGloSensor cAMP reagent, stimulated with 5 µM forskolin, and luminescence was detected. Data are expressed as mean ± SEM. n = 4, * p ≤ 0.05 versus control.
(§2) HEK293T cells were transfected with pGloSensor-22F cAMP plasmid (E2301, Promega, Walldorf, Germany) using turbofect reagent (Thermofisher Scientific, Frankfurt am Main, Germany). […] For the induction assay (step one), the luminescence was detected (background, 3 measurements every 5 min) and then the melittin peptides (0.25, 2.5, 25 µg/mL) or 5 µM forskolin were added. The luminescence was detected (3 measurements every 5 min) using the plate reader (Spark, Tecan, Männedorf, Switzerland). For the inhibition assay (step tow), the melittin peptide-treated cells were then incubated with 5 µM forskolin and the luminescence was detected (3 measurements every 5 min). […]

calmodulin = conditions: cited from earlier work
Text: These two systems are rarely independent but are often antagonistic, sometimes synergistic, or occasionally redundant. Ca^2+ is never elevated without a possible consequence—either positive or negative— ...

HEK293T cells [2] = assay: cAMP induction assay (pGloSensor-22F); assay type: cell-based, human; conditions: 2.5 and 25 µg/mL, pGloSensor luminescence, n = 4
Procedure: as §1, §2

RAW264.7 cells = assay: Cell viability assay (WST-8/Orangu formazan) in RAW264.7 cells; assay type: cell-based, murine; conditions: RAW264.7, 25 µg/mL, 24 h, WST-8 formazan absorbance, vehicle = 100%, n = 3
Procedure: Figure 1 Toxicity characterization of cells treated with melittin peptides. (A,B) For the viability assay, RAW264.7 (A) or HEK293T (B) cells were treated with bee venom compounds in the indicated concentrations for 24 h. Cells were incubated with WST-8 and the formed formazan was detected by absorbance measurements. (C) For the proliferation assay, HMEC-1 cells were grown in low density and treated after 24 h with the indicated peptide (25 µg/mL) for 72 h. Cells were stained with crystal violet solution. The amount of DNA-bound crystal violet was detected by absorbance measurements. (D) The number of sub-diploidic cells was determined by staining with propidium iodide (PI) and quantified to assess apoptosis of HUVECs. Data are expressed as mean ± SEM. (A) n = 3, (B) n = 4, (C) n = 2–3, (D) n = 2. * p ≤ 0.05 versus control.
For assessing the cytotoxicity of all peptides, various cell types and assays were utilized. To determine the cell viability of HEK293T and RAW246.7 cells, the Orangu^TM assay (Cell Guidance Systems Ltd., Cambridge, UK) was used, as previously described. 2 × 10^5 HEK293T or 2 × 10^5 RAW246.7 were seeded in 96-well plates. Different concentrations (0, 0.25, 2.5, 25 µg/mL) of melittin peptides or vehicle (DMSO) were added. After 24 h of incubation at 37 °C and 5% CO2, 10 µL of Orangu^TM cell counting solution was added and incubated for 60 min. After incubation, absorbance was measured at a wavelength of 450 nm with a reference at 650 nm at an EnSpire 2300 Multimode Plate Reader (Perkin Elmer, Lübeck, Germany). To calculate cell viability, the absorbance of vehicle-treated cells was set to 100%, and the melittin derivates-treated samples were correlated to them.

[3] = cited from earlier work
Text: Therefore, the identification of biologically active derivatives of melittins with minimal toxicity to healthy cells is important for developing new pharmacological treatment options. In this study, we applied a broad in vitro screening approach of melittin variants from the honeybee and earlier solitary bee lineages to assess whether these ...

[4] = system: LPS-activated BV2 microglia; conditions: by blocking NF-κB translocation; cited from earlier work
Text: (§3) LPS induces iNOS expression and the release of NO in RAW264.7 macrophages. […] Previously, Tang et al. reported that Melt prev ...

[5] = system: IL-1β-activated rat knee joint cells; conditions: by inhibiting I-κB degradation and NF-κB migration into the nucleus; cited from earlier work
Text: as §3

[6] = system: triple-negative and HER2-enriched breast cancer subtypes; conditions: cited from earlier work
Text: It was also reported that a positively charged C-terminal peptide end is responsible for the plasma membrane ...

MDA-MB-231 cells = assay: Apoptosis of MDA-MB-231 cells (propidium iodide, flow cytometry); assay type: cell-based, human; conditions: MDA-MB-231, 25 µg/mL, 24 h, 48 h and 72 h, PI, n = 2
Procedure: Figure 5 Anti-proliferative and apoptotic effect of melittin derivates on the triple-negative breast cancer cell line MDA-MB-231. (A) For the proliferation assay, cells were grown in low density and were treated after 24 h with melittin peptides at a concentration of 25 µg/mL for 72 h. Cells were stained with crystal violet solution. The amount of DNA-bound crystal violet was detected by absorbance measurements. (B) Melt3, 4, and Xac4, which are non-toxic to healthy cells, were further used to test effects on proliferation at 24 h (left) and 48 h (right) at different concentrations. (C) The effects on apoptosis were detected by flow cytometry after 24 h (left), 48 h (middle), and 72 h (right) of treatment. The number of apoptotic cells was determined by staining with propidium iodide (PI). Data are expressed as mean ± SEM. n = 2, * p ≤ 0.05 versus control. Sts, staurosporin 1 µM.
Apoptosis of primary HUVECs was detected according to the method of Nicoletti et al.. […] The percentage of cells with sub-diploidic DNA content was measured using a FACSVerse flow cytometer (BD Biosciences, Heidelberg, Germany).

Substance	prevention of cAMP synthesis, forskolin-stimulated cells (HEK293T cells [1])	inhibition of calmodulin function (calmodulin)	prevention of cAMP synthesis, unstimulated cells (HEK293T cells [2])	reduction of cell viability (RAW264.7 cells)	degradation in the blood [3]	iNOS expression and NO synthesis [4]	NF-κB activation [5]	apoptosis of breast cancer subtypes [6]	apoptosis / cancer cell death (MDA-MB-231 cells)
melittin [Melt, reference compound]	almost completely prevented cAMP synthesis	competitive inhibitor of the calmodulin function	almost completely prevented cAMP synthesis	more than 90%	fast degradation in the blood	reduced LPS-activated BV2 microglia iNOS expression and NO synthesis	prevents NF-κB activation	induce apoptosis	
xylopin [Xac4]									trend of decreased proliferation and increased apoptosis

— paper PMC9786170, “The Pharmacological Potential of Novel Melittin Variants from the Honeybee and Solitary Bees against Inflammation and Cancer” (Toxins, 2022)
